Data published in patent US10392383B2, “3-(1H-benzo[d]imidazol-2-yl)-1H-pyrazolo[4,3-b]pyridines and therapeutic uses thereof” (Samumed, LLC, priority 2015, dated 2019).

Experiments:
[1] = test system: primary human mesenchymal stem cells (hMSCs); assay: Induction of chondrogenesis in human mesenchymal stem cells (nodule staining with Rhodamine B / Nile Red); type: cell-based; conditions: for Emax: TGF-β3 (10 ng/mL) as positive control, read-out: Max. Activity as % TGF-β3 activity; for EC50: concentration required to induce 50% levels of chondrogenesis vs TGF-β3, read-out: Conc (nM) of 50% TGF-β3 activity
Outline: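 Primary hMSCs (passage 3–6) in incomplete chondrogenic induction medium were exposed 6 days at 37° C to compound (1:3 dilutions, 2700–10 nM in 96-well or 5000–2.2 nM in 384-well; 0.03% DMSO). Nodules stained with Rhodamine B/Nile Red were imaged; area normalized to DMSO wells for EC50, maximal activity and dose at maximum.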

IL-6 (THP-1 cells) = assay: IL-6 inhibition in LPS-stimulated THP-1 monocytes (HTRF); type: cell-based; conditions: Homo sapiens, IL-6 HTRF; for EC50: 500 ng/mL LPS, Table 6; for inhibition at 10 µM: LPS, Table 6, read-out: percent inhibition at 10 μM (given in parentheses for EC50 >10 μM)
Outline: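 THP-1 cells in 1% FBS pre-incubated 2 h with compound (10-point 1:3 series from 10 μM, 0.1% DMSO), then stimulated with 500 ng/mL LPS for 22 h at 37 °C. IL-6 measured by HTRF 665/620 ratio, normalized to DMSO; EC50 by four-parameter fit, or % inhibition at 10 μM when EC50 >10 μM.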

SMILES | EC50 [1] | EC50 (IL-6 (THP-1 cells)) | Emax [1] | inhibition at 10 µM (IL-6 (THP-1 cells))
CC(C)Nc1cncc(-c2ccc3[nH]nc(-c4nc5c(-c6cc(F)cc(NCCN(C)C)c6)cccc5[nH]4)c3n2)c1 [Compound 460, N^1-(3-Fluoro-5-(2-(5-(5-(isopropylamino)pyridin-3-yl)-1H-pyrazolo[4,3-b]pyridin-3-yl)-1H-benzo[d]imidazol-4-yl)phenyl)-N^2,N^2-dimethylethane-1,2-diamine] | 10 nM | 0.975 µM | 62% | –
CCCCC(=O)Nc1cncc(-c2ccc3[nH]nc(-c4nc5c(-c6cc(F)cc(NCCN(C)C)c6)cccc5[nH]4)c3n2)c1 [Compound 467, N-(5-(3-(4-(3-((2-(Dimethylamino)ethyl)amino)-5-fluorophenyl)-1H-benzo [d]imidazol-2-yl)-1H-pyrazolo[4,3-b]pyridin-5-yl)pyridin-3-yl)pentanamide] | – | 1.32 µM | 36% | –
Cc1ccncc1-c1ccc2[nH]nc(-c3nc4c(-c5cc(F)cc(CNS(C)(=O)=O)c5)cccc4[nH]3)c2n1 [Compound 481, N-(3-Fluoro-5-(2-(5-(4-methylpyridin-3-yl)-1H-pyrazolo[4,3-b]pyridin-3-yl)-1H-benzo[d]imidazol-4-yl)benzyl)methanesulfonamide] | – | 2.12 µM | 36% | –
CCCC(=O)Nc1cncc(-c2ccc3[nH]nc(-c4nc5c(-c6cc(F)cc(CNS(C)(=O)=O)c6)cccc5[nH]4)c3n2)c1 [Compound 493, N-(5-(3-(4-(3-Fluoro-5-(methylsulfonamidomethyl)phenyl)-1H-benzo[d]imidazol-2-yl)-1H-pyrazolo[4,3-b]pyridin-5-yl)pyridin-3-yl)butyramide] | 900 nM | > 10 µM | 100% | 35.3%
Fc1cccc(-c2cccc3[nH]c(-c4n[nH]c5ccc(C6CCNCC6)nc45)nc23)c1 [Compound 505, 3-(4-(3-Fluorophenyl)-1H-benzo[d]imidazol-2-yl)-5-(piperidin-4-yl)-1H-pyrazolo[4,3-b]pyridine] | – | 4.92 µM | 46% | –
Fc1cccc(-c2cccc3[nH]c(-c4n[nH]c5ccc(-c6cncc(OC7CCNCC7)c6)nc45)nc23)c1 [Compound 512, 3-(4-(3-Fluorophenyl)-1H-benzo[d]imidazol-2-yl)-5-(5-(piperidin-4-yloxy)pyridin-3-yl)-1H-pyrazolo[4,3-b]pyridine] | 7 nM | 1.52 µM | 75% | –

Now from value to compound, other results behind:

EC50 [1] | EC50 (IL-6 (THP-1 cells)) | SMILES | Emax [1] | inhibition at 10 µM (IL-6 (THP-1 cells))
– | > 10 µM | Cn1cc(-c2ccc3[nH]nc(-c4nc5c(-c6cccc(F)c6)cccc5[nH]4)c3n2)cn1 [Compound 508, 3-(4-(3-Fluorophenyl)-1H-benzo[d]imidazol-2-yl)-5-(1-methyl-1H-pyrazol-4-yl)-1H-pyrazolo[4,3-b]pyridine] | 48% | 0%
10 nM | 0.787 µM | Cc1ncc(-c2ccc3[nH]nc(-c4nc5c(-c6cccc(F)c6)cccc5[nH]4)c3n2)n1C [Compound 509, 5-(1,2-Dimethyl-1H-imidazol-5-yl)-3-(4-(3-fluorophenyl)-1H-benzo[d]imidazol-2-yl)-1H-pyrazolo[4,3-b]pyridine] | 112% | –
7 nM | 7.84 µM | NC1CN(c2cncc(-c3ccc4[nH]nc(-c5nc6c(-c7cccc(F)c7)cccc6[nH]5)c4n3)n2)C1 [Compound 510, 1-(6-(3-(4-(3-Fluorophenyl)-1H-benzo[d]imidazol-2-yl)-1H-pyrazolo[4,3-b]pyridin-5-yl)pyrazin-2-yl)azetidin-3-amine] | 53% | –
2 nM | 7.38 µM | CN(C)CCOc1cncc(-c2ccc3[nH]nc(-c4nc5c(-c6cccc(F)c6)cccc5[nH]4)c3n2)c1 [Compound 515, 2-((5-(3-(4-(3-Fluorophenyl)-1H-benzo[d]imidazol-2-yl)-1H-pyrazolo[4,3-b]pyridin-5-yl)pyridin-3-yl)oxy)-N,N-dimethylethan-1-amine] | 55% | –
2 nM | > 10 µM | COc1cncc(-c2ccc3[nH]nc(-c4nc5c(-c6cccc(F)c6)cccc5[nH]4)c3n2)c1 [Compound 516, 3-(4-(3-Fluorophenyl)-1H-benzo[d]imidazol-2-yl)-5-(5-methoxypyridin-3-yl)-1H-pyrazolo[4,3-b]pyridine] | 54% | 49.5%
– | 9.7 µM | Oc1cncc(-c2ccc3[nH]nc(-c4nc5c(-c6cccc(F)c6)cccc5[nH]4)c3n2)c1 [Compound 517, 5-(3-(4-(3-Fluorophenyl)-1H-benzo[d]imidazol-2-yl)-1H-pyrazolo[4,3-b]pyridin-5-yl)pyridin-3-ol] | 45% | –
